Experiments:
[1] = target: T1, hα2B receptor (Homo sapiens, UniProt P18089); assay: Radioligand binding experiment for hα2B receptor ([3H]-raulwolscine); conditions: membranes of CHO cells expressing human α2B receptor, [3H]raulwolscine 1 nM; for IC50: read-out: hα2B pIC50 (converted)
T1 construct: expressed in transfected cells
T1 sequence (P18089 1-450): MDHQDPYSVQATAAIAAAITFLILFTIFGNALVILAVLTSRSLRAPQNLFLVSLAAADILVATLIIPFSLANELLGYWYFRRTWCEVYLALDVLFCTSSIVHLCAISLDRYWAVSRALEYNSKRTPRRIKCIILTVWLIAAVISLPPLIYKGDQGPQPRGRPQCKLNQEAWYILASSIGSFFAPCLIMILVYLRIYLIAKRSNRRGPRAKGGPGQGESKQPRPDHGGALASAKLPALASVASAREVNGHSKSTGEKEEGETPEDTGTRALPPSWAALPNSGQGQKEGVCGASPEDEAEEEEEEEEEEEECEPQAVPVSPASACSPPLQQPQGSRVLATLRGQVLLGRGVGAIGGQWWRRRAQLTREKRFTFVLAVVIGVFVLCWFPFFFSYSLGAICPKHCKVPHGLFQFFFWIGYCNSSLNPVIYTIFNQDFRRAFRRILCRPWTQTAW
In short: (§1)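 Competition binding with [3H]-rauwolscine on membranes from CHO cells stably expressing human α2A, α2B or α2C receptors (sodium butyrate-induced), in 25 mM glycylglycine pH 8.0; filtration and scintillation counting.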

[2] = target: T2, h5-HT transporter (Homo sapiens, UniProt P31645); assay: Radioligand binding experiment for 5-HT transporter ([3H]paroxetine, human platelet membranes); conditions: human platelet membranes, [3H]paroxetine 0.5 nM; for IC50: read-out: 5HTT pIC50 (converted)
T2 construct: Human platelet membranes (Oceanix Biosciences Corporation, Hanover, Md., USA) were thawed; tissue Oceanix Biosciences Corporation, Hanover, Md., USA; host or cells: human platelet membranes
In short: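 Competition binding of [^3H]paroxetine to human platelet membranes in Tris-HCl 50 mM, 120 mM NaCl, 5 mM KCl; filter-bound radioactivity counted.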

[3] = target: T3, hα2A receptor (Homo sapiens, UniProt P08913); assay: Radioligand binding experiment for hα2A receptor ([3H]-raulwolscine); conditions: membranes of CHO cells expressing human α2A receptor, [3H]raulwolscine 1 nM; for IC50: read-out: hα2A pIC50 (converted)
T3 construct: expressed in transfected cells
T3 sequence (P08913 1-465): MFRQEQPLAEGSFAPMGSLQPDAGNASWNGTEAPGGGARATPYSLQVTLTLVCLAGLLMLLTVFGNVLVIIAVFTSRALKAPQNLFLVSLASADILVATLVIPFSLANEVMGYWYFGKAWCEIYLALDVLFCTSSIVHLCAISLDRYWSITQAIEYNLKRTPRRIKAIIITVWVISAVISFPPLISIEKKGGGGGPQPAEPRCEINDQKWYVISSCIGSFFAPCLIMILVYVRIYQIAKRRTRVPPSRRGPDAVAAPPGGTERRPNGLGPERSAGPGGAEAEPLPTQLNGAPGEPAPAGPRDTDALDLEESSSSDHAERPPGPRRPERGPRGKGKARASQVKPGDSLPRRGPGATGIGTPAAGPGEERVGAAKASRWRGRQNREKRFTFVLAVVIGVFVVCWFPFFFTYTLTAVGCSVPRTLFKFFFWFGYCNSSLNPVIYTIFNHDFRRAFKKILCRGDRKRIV
Procedure: The interaction of the compounds of Formula (I) with hα2-receptors and h5-HT-transporters was assessed in in vitro radioligand binding experiments. In general, a low concentration of a radioligand with a high binding affinity for a particular receptor or transporter is incubated with a sample of a tissue preparation enriched in a particular receptor or transporter or with a preparation of cells expressing cloned human receptors in a buffered medium. During the incubation, the radioligand binds to the receptor or transporter. When equilibrium of binding is reached, the receptor bound radioactivity is separated from the non-bound radioactivity, and the receptor- or transporter-bound activity is counted. The interaction of the test compounds with the receptor is assessed in competition binding experiments. Various concentrations of the test compound are added to the incubation mixture containing the receptor- or transporter preparation and the radioligand. The test compound in proportion to its binding affinity and its concentration inhibits binding of the radioligand. The radioligand used for hα2A, hα2B and hα2C receptor binding was [^3H]-raulwolscine and for the h5-HT transporter was [^3H]paroxetine.
CHO cells, stabile transfected with human adrenergic-α2A-, -α2B or α2C receptor cDNA, were cultured in Dulbecco's Modified Eagle's Medium (DMEM)/Nutrient mixture Ham's F12 (ratio 1:1)(Gibco, Gent-Belgium) supplemented with 10% heat inactivated fetal calf serum (Life Technologies, Merelbeke-Belgium) and antibiotics (100 IU/ml penicillin G, 100 μg/ml streptomycin sulphate, 110 μg/ml pyruvic acid and 100 μg/ml L-glutamine). One day before collection, cells were induced with 5 mM sodiumbutyrate. Upon 80–90% of confluence, cells were scraped in phosphate buffered saline without Ca^2+ and Mg^2+ and collected by centrifugation at 1500×g for 10 min. The cells were homogenised in Tris-HCl 50 mM using an Ultraturrax homogenizer and centrifuged for 10 min at 23,500×g. The pellet was washed once by resuspension and rehomogenization and the final pellet was resuspended in Tris-HCl, divided in 1 ml aliquots and stored at −70° C.
Membranes were thawed and re-homogenized in incubation buffer (glycylglycine 25 mM, pH 8.0). […] Filters were rinsed extensively with ice-cold rinsing buffer (Tris-HCl 50 mM pH 7.4). Filter-bound radioactivity was determined by scintillation counting in a Topcount (Packard, Meriden, Conn.) and results were expressed as counts per minute (cpm). Non-specific binding was determined in the presence of 1 μM oxymetazoline for hα2A- and hα2B receptors and 1 μM spiroxatrine for hα2C receptors.
Data from assays in the presence of compound were calculated as a percentage of total binding measured in the absence of test compound. Inhibition curves, plotting percent of total binding versus the log value of the concentration of the test compound, were automatically generated, and sigmoidal inhibition curves were fitted using non-linear regression. The pIC50 values of test compounds were derived from individual curves.

[4] = target: T4, hα2C receptor (Homo sapiens, UniProt P18825); assay: Radioligand binding experiment for hα2C receptor ([3H]-raulwolscine); conditions: membranes of CHO cells expressing human α2C receptor, [3H]raulwolscine 1 nM; for IC50: read-out: hα2C pIC50 (converted)
T4 construct: expressed in transfected cells
T4 sequence (P18825 1-462): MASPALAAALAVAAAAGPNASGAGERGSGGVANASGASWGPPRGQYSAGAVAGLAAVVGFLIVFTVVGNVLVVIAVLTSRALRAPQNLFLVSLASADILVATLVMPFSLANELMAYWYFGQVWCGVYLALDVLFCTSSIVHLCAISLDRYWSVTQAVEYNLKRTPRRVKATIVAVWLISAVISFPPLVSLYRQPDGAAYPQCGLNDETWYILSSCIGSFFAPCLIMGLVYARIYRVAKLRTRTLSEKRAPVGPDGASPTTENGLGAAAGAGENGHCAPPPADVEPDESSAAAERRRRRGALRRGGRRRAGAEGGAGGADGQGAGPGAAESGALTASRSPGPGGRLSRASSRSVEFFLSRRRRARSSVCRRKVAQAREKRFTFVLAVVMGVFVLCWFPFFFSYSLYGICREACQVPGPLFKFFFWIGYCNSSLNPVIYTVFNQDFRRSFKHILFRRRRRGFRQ
In short: as §1

T2 sequence (P31645 whole entry): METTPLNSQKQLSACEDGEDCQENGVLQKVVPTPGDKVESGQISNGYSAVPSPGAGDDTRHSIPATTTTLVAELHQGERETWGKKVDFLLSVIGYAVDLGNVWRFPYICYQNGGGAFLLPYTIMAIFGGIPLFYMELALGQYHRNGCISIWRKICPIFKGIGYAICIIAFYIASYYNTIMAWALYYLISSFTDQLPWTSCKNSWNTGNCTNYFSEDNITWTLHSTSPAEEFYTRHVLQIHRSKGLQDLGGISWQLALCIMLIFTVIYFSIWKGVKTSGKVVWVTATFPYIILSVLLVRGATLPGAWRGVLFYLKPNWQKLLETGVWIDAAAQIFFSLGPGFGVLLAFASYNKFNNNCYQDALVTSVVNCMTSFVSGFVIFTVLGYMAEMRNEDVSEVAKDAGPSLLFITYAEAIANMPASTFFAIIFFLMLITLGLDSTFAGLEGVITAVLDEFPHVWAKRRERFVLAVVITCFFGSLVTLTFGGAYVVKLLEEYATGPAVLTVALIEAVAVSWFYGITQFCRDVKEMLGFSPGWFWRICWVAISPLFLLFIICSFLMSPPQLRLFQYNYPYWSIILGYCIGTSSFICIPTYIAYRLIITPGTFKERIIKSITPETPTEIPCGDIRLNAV

Compound	IC50 [1]	IC50 [2]	IC50 [3]	IC50 [4]	hα2B pIC50 [1]	5HTT pIC50 [2]	hα2A pIC50 [3]	hα2C pIC50 [4]
COc1cc2c(cc1OC)C1=NOC(CN3CCN(CC=Cc4cccc(C)c4)CC3)C1CO2 (stereo not drawn) [Compound 110]	0.112 µM	0.0302 µM	0.0692 µM	0.0347 µM				
CC(=O)Oc1ccc2c(c1)OCC1C2=NOC1CN1CCN(CC=Cc2ccccc2)CC1 (stereo not drawn) [Compound 233]					8.20	7.36	8.33	7.94
C(=Cc1ccccc1)CN1CCN(CC2ON=C3c4cc5c(cc4OCC32)OCC5)CC1 (racemic) [Compound 279]					8.03	7.45	8.45	8.24
COc1cc2c(cc1OC)C1=NOC(CN3CCN(CC(Br)=Cc4ccccc4)CC3)C1CO2 (stereo not drawn) [Compound 143]	0.0251 µM	0.024 µM	0.0776 µM	0.0234 µM				
COc1ccc2c(c1)CCC1C2=NOC1CN1CCN(CC=Cc2ccccc2)CC1 (stereo not drawn) [Comp 220]	0.0141 µM	0.0661 µM	0.00759 µM	0.0437 µM				
COc1cc2c(cc1OC)C1=NOC(CN3CCN(CC=Cc4ccc(F)cc4)CC3)C1CO2 (stereo not drawn) [Compound 43]	0.0646 µM	0.0158 µM	0.102 µM	0.138 µM				
COc1cc2c(cc1OC)C1=NOC(CN3CCN(CC=Cc4ccc5c(c4)CCO5)CC3)C1CO2 (stereo not drawn) [Compound 125]	0.141 µM	0.0135 µM	0.0562 µM	0.0347 µM				
COc1cc2c(cc1OC(C)=O)C1=NOC(CN3CCN(CC(C)=Cc4ccccc4)CC3)C1CO2 (stereo not drawn) [Compound 257]					8.37	7.46	7.52	8.65
COc1cc2c(cc1OC)C1=NOC(CN3CCN(CC=Cc4ccc5ccccc5c4)CC3)C1CO2 (stereo not drawn) [Compound 181]	0.776 µM	0.0234 µM	0.282 µM	0.324 µM				
CN1CC2C(=NOC2CN2CCN(Cc3ccc4ccccc4c3)CC2)c2ccccc21 (stereo not drawn) [Compound 266]					7.80	8.88	7.84	7.45
COc1cc2c(cc1OC)C1=NOC(CN3CCN(Cc4ccc5ccccc5n4)CC3)C1CO2 (stereo not drawn) [Compound 45]	0.0708 µM	0.0692 µM	0.0575 µM	0.0437 µM				
COc1cc2c(cc1OC)C1=NOC(CN(C=O)C3CCN(Cc4ccc5ccccc5c4)CC3)C1CO2 (racemic) [Compound 282]					7.26	8.06	7.66	7.64
COc1cc2c(cc1OC)C1=NOC(CN3CCN(CC4=Cc5ccccc5OC4)CC3)C1CO2 (stereo not drawn) [Compound 65]	0.0182 µM	0.00513 µM	0.0132 µM	0.00513 µM				
COc1cc2c(cc1OC)C1=NOC(CN(C)C3CCN(Cc4ccc5ccccc5c4)CC3)C1CO2 (racemic) [Compound 281]					7.19	7.25	7.05	7.31
COc1cc2c(cc1OC)C1=NOC(CN3CCN(Cc4cccc(Cl)c4)CC3)C1CO2 (stereo not drawn) [Compound 14]	0.646 µM	0.363 µM	0.427 µM	0.263 µM				
COc1cc2c(cc1OC)C1=NOC(CN3CCN(CC(C)Oc4cccc(F)c4)CC3)C1CO2 (stereo not drawn) [Compound 27]	0.00603 µM	0.0182 µM	0.00407 µM	0.00155 µM				

More lines, main results first:

IC50 [1]	IC50 [2]	IC50 [3]	IC50 [4]	Compound	hα2B pIC50 [1]	5HTT pIC50 [2]	hα2A pIC50 [3]	hα2C pIC50 [4]
0.0209 µM	0.0132 µM	0.00776 µM	0.0309 µM	CC(=O)Oc1ccc2c(c1)OCC1C2=NOC1CN1CCN(Cc2ccc3ccccc3c2)CC1 (stereo not drawn) [Compound 273]				
0.00692 µM	0.00871 µM	0.0112 µM	0.00646 µM	COc1cc2c(cc1OC)C1=NOC(CN3CCN(C/C=C/c4ccsc4)CC3)C1CO2 (single isomer, unassigned) [Compound 314]				
0.447 µM	0.00813 µM	0.0912 µM	0.38 µM	COc1ccc2c(c1)OCC1C2=NOC1CCN1CCN(Cc2ccc3ccccc3c2)CC1 (stereo not drawn) [Compound 280]				
0.0776 µM	0.0126 µM	0.145 µM	0.0295 µM	COc1cc2c(cc1OC)C1=NOC(CN3CCN(C/C=C/c4ccc(F)cc4F)CC3)C1CO2 (single isomer, unassigned) [Compound 185]				
0.174 µM	0.407 µM	0.0105 µM	0.12 µM	COc1cc2c(cc1OC)C1=NOC(CN3CCN(C(C)/C=C/c4ccccc4)CC3)C1CO2 (single isomer, unassigned) [Compound 316]				
0.575 µM	0.257 µM	0.603 µM	0.363 µM	COc1cc2c(cc1OC)C1=NOC(CN3CCN(Cc4cccc(F)c4)CC3)C1CO2 (stereo not drawn) [Compound 285]				
0.933 µM	0.724 µM	0.347 µM	0.631 µM	COc1cc2c(cc1OC)C1=NOC(CN3CCN(Cc4ccsc4)CC3)C1CO2 (stereo not drawn) [Compound 300]				
0.0138 µM	0.00295 µM	0.00389 µM	0.0427 µM	c1ccc2cc(CN3CCN(CC4ON=C5c6ccc(OC7CCOC7)cc6OCC54)CC3)ccc2c1 (stereo not drawn) [Compound 271]				
